The values below come from patent publication US7662547B2, “Compositions and methods for detecting and treating HIV infections” (priority 2006, dated 2010).

The structures appear in SMILES notation.

Assay [1] concerns HIV-1. As to the kind of experiment: HIV-1 infection of T cells pre-activated with PHA plus IL-2. It is filed as cell-based, HIV-1NL4-3. The settings on record: similar Jas treatment (120 nM). The protocol:
(§1) Thus, the effect of Jas on T cell activity was determined. FIG. 3A illustrates inhibition of HIV-1 latent infection by Jas. Effects of Jas on LFA-1 activation also were tested. Jas treated or untreated resting T cells were activated by anti-CD3/CD28 bead and stained with human ICAM-1/Fc chimera and analyzed by flow cytometer. The effects of Jas on IL-2 secretion also were measured. […] Cells were treated with Jas for 2 hours, washed, infected with HIV-1 for 5 days, then activated by anti-CD3/CD28 bead. […] Following infection, cellular DNA was PCR amplified for viral late DNA and β-actin pseudogene. Cells were pre-activated with PHA plus IL-2, then treated and infected as in FIG. 3A. […] CEM-SS cell were treated and infected as in FIG. 3A. Effects of Jas on HIV-1 infection of resting T cells pre-stimulated with anti-CD4/CXCR4 bead (2 beads/cell) are shown in FIG. 3E. Pre-stimulated cells were treated and infected as in FIG. 3A.

The subject of a further assay is CD4/CXCR4 distribution. The assay is described as follows: Confocal microscopy of CD4 and CXCR4 distribution on resting CD4 T cells. It is filed as cell-based, human. The note with it: 120 nM, 2 hours. An excerpt:
Stained cells were imaged using a Zeiss Laser Scanning Microscope (Thornwood, N.Y.), LSM 510 META, with a 40 NA 1.3 or 60 NA 1.4 oil Dic Plan-Neofluar objective. Samples were excited with two laser lines, 488 nm for GFP and 543 nm for Alexa 594. Images were simultaneously recorded in three channels: channel one: fluorescent emissions from 505 to 530 nm for GFP (green); channel two: emissions from 580 to 650 nm for Alexa 594 (red); channel three: DIC. Images were processed and analyzed by the LSM 510 META software.
FIG. 8 illustrates confocal microscopy of CD4 and CXCR4 distribution on resting CD4 T cells treated with 120 nM Jas. Resting CD4 T cells were treated with 120 nM of Jas for 2 hours, then fixed and stained with a FITC-labeled anti-human CD4 monoclonal antibody and a biotin-labeled anti-human CXCR4 monoclonal antibody followed by Alexa Fluor-594 labeled streptavidin (right panel). Untreated resting CD4 T cells were used as a control (left panel).

In assay [2] the test system is HIV-1. As to the kind of experiment: PCR amplification of intracellular viral late DNA (viral entry). The note with it: 120 nM. It is filed as cell-based, HIV-1NL4-3. The protocol:
To remove plasmid DNA contamination, viral stock was treated with Benzonase (Novagen, Madison, WI) (250 U/ml) at […] for 15 min before infection. Total cellular DNA were purified using SV total RNA isolation kit as recommended by the manufacture (Promega, Madison, WI). For detection of viral late reverse transcription products by PCR, forward primer HIV/Tat-Rev-5’(5′[…] 3′; SEQ ID NO: 6) and reverse primer LTR-gag2 (5′[…] 3′; SEQ ID NO: 7) were used. PCR was carried out in 1× Ambion PCR buffer, 125 μM dNTP, 50 pmol each primer, 1U SuperTaq Plus (Ambion Inc. Austin, TX) with 30 cycles at 94° C. for 20 seconds, 68° C. for 60 seconds. For relative quantification, the cellular-actin pseudogene were co-amplified using QuantumRNA-actin Internal Standards (Ambion Inc. Austin, TX), with a ratio from 5/5 to 1/9 for actin primer/competitor.
Thus, the effect of Jas on T cell activity was determined. FIG. 3A illustrates inhibition of HIV-1 latent infection by Jas. Effects of Jas on LFA-1 activation also were tested. Jas treated or untreated resting T cells were activated by anti-CD3/CD28 bead and stained with human ICAM-1/Fc chimera and analyzed by flow cytometer. The effects of Jas on IL-2 secretion also were measured. […] Cells were treated with Jas for 2 hours, washed, infected with HIV-1 for 5 days, then activated by anti-CD3/CD28 bead. […]

The test system of assay [3] is HIV-1. The assay is described as follows: HIV-1 latent infection of resting CD4 T cells, viral replication assay (p24 ELISA) after anti-CD3/CD28 activation. It is filed as cell-based, HIV-1NL4-3. The settings on record: for inhibition of HIV replication in resting T cells: 2 hours before infection. The protocol:
Virus stocks of the HIV-1NL4-3 (Adachi et al. J Virol 59(2), 284-91 (1986)) were prepared by transfection of HeLa cells with cloned proviral DNA as described in Wu and Marsh (2001). Supernatant was harvested at 48 hours, and filtered through a 0.45 μm nitrocellulose membrane. Virus titer (TCID50) was measured by infection of a Rev-CEM indicator cell line which was constructed through stable integration of a Rev-dependent GFP expression lentiviral vector into CEM-SS. […] For infection of resting CD4 T cells, viruses were first titrated to determine minimal levels detectable by p24 ELISA in replication assays described below. Unless specified, for most replication assays, 10^3.5 to 10^4.5 TCID50 units of HIV-1 were used to infect 10^6 cells. For infection procedure, CD4 T cells were incubated with the virus for 2 hours, then washed twice with medium to remove unbound virus. Infected cells were resuspended into fresh RPMI 1604 medium supplemented with 10% heat-inactivated fetal bovine serum, penicillin (50 U/ml) and streptomycin (50 μg/ml) at a density of 10^6 per ml and incubated for 5 days without stimulation. Cells were activated at day 5 with anti-CD3/CD28 magnetic beads at 4 beads per cells. For viral replication assay, 10% of infected cells were taken at 1, 3, 5, 6, 7, 8, 9 days post infection. Cells were pelleted and the supernatant was saved for p24 ELISA. Levels of p24 in the supernatant were measured by using Coulter HIV-1 p24 Assay Kit (Beckman Coulter, Inc. Miami, Fla.). Plates were kinetically read using ELx808 automatic microplate reader (Bio-Tek Instruments, Inc. Winooski, Vt.) at 630 nm.
Resting CD4 T cells were treated with pertussis toxin (Sigma, St. Louis, Mo.) at a final concentration of 100 ng/ml for 2 hours, then infected with HIV-1. Following infection, cells were washed 2 to 3 times to remove cell-free virus and the inhibitor. Cells were treated with Jasplakinolide (Molecular Probes, Eugene, Oreg.) for 1 to 2 hours or Latrunculin A (Biomol, Plymouth Meeting, Pa.) for 5 minutes at various concentrations, washed twice with medium, then infected with HIV-1. Following infection, cells were washed twice to remove cell free virus. Cells were treated with 200 nM of Staurosporine (Biomol, Plymouth Meeting, Pa.) for 2 hours, then infected with HIV-1. Following infection, cells were washed twice to remove cell-free virus and the inhibitor.
Resting CD4 T cells were treated with S3 or Q104 for I to 2 hours, then infected with HIV-1. Following infection, cells were washed 2 to 3 times to remove cell-free virus and the peptides.
Effects of Jas on LFA-1 activation also were tested. Jas treated or untreated resting T cells were activated by anti-CD3/CD28 bead and stained with human ICAM-1/Fc chimera and analyzed by flow cytometer. The effects of Jas on IL-2 secretion also were measured. […] Cells were treated with Jas for 2 hours, washed, infected with HIV-1 for 5 days, then activated by anti-CD3/CD28 bead. […] Following infection, cellular DNA was PCR amplified for viral late DNA and β-actin pseudogene. Cells were pre-activated with PHA plus IL-2, then treated and infected as in FIG. 3A. […] CEM-SS cell were treated and infected as in FIG. 3A.
On the technique in general: ELISA stands for enzyme-linked immunosorbent assay.

Assay [4] has as its system HIV-1. The assay is described as follows: HIV-1 infection of transformed CEM-SS cells. It is filed as cell-based, HIV-1NL4-3. The protocol:
as §1

With `C/C1=C\[C@H](C)C[C@H](C)OC(=O)C[C@H](c2ccc(O)cc2)NC(=O)[C@@H](Cc2c(Br)[nH]c3ccccc23)N(C)C(=O)[C@H](C)NC(=O)[C@@H](C)C1` [Jas, Jasplakinolide], in the assay with HIV-1 [1], the “inhibition of HIV replication in pre-activated T cells” value is “no inhibition”. For the same compound, the “CD4/CXCR4 distribution on the surface, treated vs untreated cells” value with CD4/CXCR4 distribution was “did not reveal any significant difference”. For the same compound, the “intracellular viral DNA, treated vs untreated cells” value in the assay on HIV-1 [2] is “did not detect any difference”. Also, the “inhibition of HIV replication in resting T cells” value is “partial inhibition” in the assay on HIV-1 [3] (24 nM), “Complete inhibition” with HIV-1 [3] (120 nM) and “Complete inhibition” in the assay on HIV-1 [3] (600 nM). Moreover, the “inhibition of HIV replication in resting T cells pre-stimulated with CD4/CXCR4 bead” value with HIV-1 [3] (120 nM, pre-stimulation 2 beads/cell) was “completely abolished the inhibition”. Moreover, the “inhibition of HIV replication in GEM-SS” value in the assay with HIV-1 [4] (3μM) is “did inhibit HIV replication”. Also, the “inhibition of HIV replication in transformed CEM-SS” value with HIV-1 [4] (similar Jas treatment (120 nM)) is “no inhibition”.
